Test results taken from patent US7012095B2, “Compounds for modulating cell proliferation” (HSC Research and Development Limited, priority 2000, dated 2006).

Experiments:
[1] = system: Ph+ ALL cells; test: Killing of Philadelphia positive ALL cells in methylcellulose colony culture; type: cell-based, human
Method: (§1) Ph+ ALL cells were plated in 1 ml volumes, in the absence of exogenous growth factors, into 35 mm petri dishes (Nunc, Gibco) containing alpha MEM (Gibco) plus 10% FCS (Cansera Rexdale, ON.) in 0.9% (vol/vol) methylcellulose (Fluka, Switzerland) with the indicated concentrations of CR4. Cultures were set at 37° C., 5% CO2 in a humidified atmosphere. Colonies consisting of more than 20 cells were counted at 12 days or earlier using an inverted microscope.
as §1, with “ALL” for “Ph+ ALL”, “20%” for “10%”, “and” for “with”, “compound.” for “CR4.”
as §1, with “ALL” for “Ph+ ALL”, “20%” for “10%”, “and” for “with”, “CR24.” for “CR4.”, “9” for “12”, “microscope. […]” for “microscope.”

[2] = system: normal bone marrow cells; test: In vitro purging of normal bone marrow; type: cell-based; conditions: 50 μM, seven hours exposure, FIG. 21
Method: Heparinized bone marrow cells were layered over Percoll (1.077 gm/ml) (Pharmacia Fine Chemical, Piscataway N.J.) and centrifuged at 400 g at 4° C. for 10 minutes to remove neutrophils and RBCs.
For the purging process, the cells were resuspended at 1×10^6/ml in complete medium with or without 50 μM CR4. The cells were incubated with the CR4 for two and a half hours at 37° C., 5% CO2. At the end of this period the cells were thoroughly washed in medium to remove CR4 and then cultured at 2×10^5 cells/ml in IMDM (OCI, Toronto) containing 0.9% (vol/vol) methylcellulose supplemented with 30% FCS (Cansera Rexdale, ON.) or normal human plasma, a cocktail of cytokines containing G-CSF (10 ng/ml, Amgen), IL-3 (40 U/ml, Immunex), MGF (50 ng/ml, Immunex), Erythropoietin (2 u/ml, Epprex) or TPO (10 ng/ml, Amgen) and 5×10^−5M b-2-mercaptoethanol. The culture mixture was plated in 1 ml volumes into 35 mm petri dishes and incubated at 37° C., 5% CO2 in a humidified atmosphere. All cultures were evaluated at 14 days for the number of BFU-E colonies (defined as aggregates of more than 500 hemaglobinized cells or, 3 or more erythroid subcolonies), CFU-C colonies (defined as granulocyte or monocyte-macrophage cells or both) and CFU-GEMM colonies (a mixed population comprising of all elements).
For the purging process, the cells were resuspended at 1×10^6/ml in complete medium with or without 50 μM CR11. The cells were incubated with the tryrphostin for seven hours at 37° C., 5% CO2. At the end of this period the cells were thoroughly washed in medium to remove CR11 and then cultured at 2×10^5 cells/ml in IMDM (OCI, Toronto) containing 0.9% (vol/vol) methylcellulose supplementd with 30% FCS (Cansera Rexdale, ON.) or normal human plasma, a cocktail of cytokines containing G-CSF (10 ng/ml, Amgen), IL-3 (40 U/ml, Immunex), MGF (50 ng/ml, Immunex), Erythropoietin (2 u/ml, Epprex) or TPO (10 ng/ml, Amgen) and 5×10^−5M β-2-mercaptoethanol. The culture mixture was plated in 1 ml volumes into 35 mm petri dishes and incubated at 37° C., 5% CO2 in a humidified atmosphere. All cultures were evaluated at 14 days for the number of BFU-E colonies (defined as aggregates of more than 500 hemoglobinized cells or, 3 or more erythroid subcolonies), CFU-C colonies (defined as granulocyte or monocyte-macrophage cells or both) and CFU-GEMM colonies (a mixed population comprising of all elements).

[3] = system: variety of cancer cells (ALL, Philadelphia positive ALL, acute myeloid leukemia, myeloma, B-lineage lymphoma); test: Cancer cell growth in culture, summary statements; type: cell-based; conditions: for efficacy against a variety of cell types (Acute Lymphoblastic Leukemia, Philadelphia positive Leukemia, Acute Myeloid Leukemia): in culture
[4] = system: Philadelphia positive ALL, AML and lymphoma; test: In vitro / ex vivo purging assays, summary statements; type: cell-based
[5] = system: normal bone marrow cells; test: CFU-GEMM assay, normal bone marrow differentiation in culture; type: cell-based; conditions: 14 days
Method: The CFU-GEMM assay was performed according to Fauser and Messner (1978, Blood, 52(6) 143–8) and Messner and Fausser (1980, Blut, 41(5) 327–33) with some variations. In brief, heparinized bone marrow cells were layered over Percoll (1.077 gm/ml) (Pharmacia Fine Chemical, Piscataway N.J.) and centrifuged at 400 g at 4° C. for 10 minutes to remove neutrophils and RBCs. The fractionated BM cells at 2×10^5 cells/ml were cultured in IMDM (OCI, Toronto) containing 0.9% (vol/vol) methylcellulose supplemented with 30% FCS (Cansera Rexdale, ON.) or normal human plasma, a cocktail of cytokines containing G-CSF (10 ng/ml, Amgen), IL-3 (40 U/ml, Immunex), MGF (50 ng/ml, Immunex), Erythropoietin (2 u/ml, Epprex) or TPO (10 ng/ml, Amgen), 5×10^−5M β-2-mercaptoethanol and the specified concentration of CR4. The culture mixture was plated in 1 ml volumes into 35 mm petri dishes and incubated at 37° C., 5% CO2 in a humidified atmosphere. All cultures were evaluated at 14 days for the number of BFU-E colonies (defined as aggregates of more than 500 hemoglobinized cells or, 3 or more erythroid subcolonies), CFU-GM colonies (defined as granulocyte or monocyte-macrophage cells or both), CFU-Meg colonies (comprising 4 or more megakaryocytes) and CFU-GEMM colonies (a mixed population comprising of all elements).
The CFU-GEMM assay was performed according to Fauser and Messner (1978, Blood, 52(6) 1243–8) and Messner and Fausser (1980, Blut, 41(5) 327–33) with some variations. In brief, heparinized bone marrow cells were layered over Percoll (1.077 gm/ml) (Pharmacia Fine Chemical, Piscataway N.J.) and centrifuged at 400 g at 4° C. for 10 minutes to remove neutrophils and RBCs. […] All cultures were evaluated at 14 days for the number of BFU-E colonies (defined as aggregates of more than 500 hemaglobinized cells or, 3 or more erythroid subcolonies) and CFU-C colonies (defined as granulocyte or monocyte-macrophage cells or both).
The CFU-GEMM assay was performed according to Fauser and Messner (1978, Blood, 52(6) 1243–8) and Messner and Fausser (1980, Blut, 41(5) 327–33) with some variations (British Journal of Haematology, 1992, 80, p40–48). […] All cultures were evaluated at 14 days for the number of BFU-E colonies (defined as aggregates of more than 500 hemoglobinized cells or, 3 or more erythroid subcolonies) and CFU-C colonies (defined as granulocyte or monocyte-macrophage cells or both).

## COc1cc(/C=C/C=C(\C#N)C(=O)NCCO)cc(OC)c1O [CR24, (E,E)-2-(β-Ethanolamido)-3-(3,5-dimethoxy-4-hydroxystyryl)acrylonitrile]
[1]; colonies at 9 days, FIG. 10
  lowest concentration effective against Ph+ ALL cells: 0.5 µM

## COc1cc(/C=C/C=C(\C#N)C(=O)NCc2ccc(O)c(O)c2)cc(OC)c1O [CR11, (E,E)-2-(3,4-Dihydroxybenzylamido)-3-(3,5-dimethoxy-4-hydroxystyryl)acrylonitrile]
[2]; 14 days
  inhibition of colony formation: did not result in any significant inhibition
[2]
  BFU-E, CFU-GEMM and CFU-C colonies: all normal
[3]
  efficacy against a variety of cell types (Acute Lymphoblastic Leukemia, Philadelphia positive Leukemia, Acute Myeloid Leukemia): highly effective
[4]
  efficacy as ex vivo purging agents: effective

## N#C/C(=C\C=C\c1ccc(O)c(O)c1)C(=O)NCc1ccc(O)c(O)c1 [CR21, (E,E)-2-(3,4 Dihydroxybenzylamido)-3-(3,4-dihydroxystyryl)acrylonitrile]
[5]; 20 μM, FIG. 13
  inhibition of BFU-E colony formation: inhibition
[1]; Ph+ ALL, colonies at 12 days, FIG. 8
  concentration inhibiting cell growth: 5 µM

## N#C/C(=C\C=C\c1ccccc1)C(=O)NCc1ccc(O)c(O)c1 [CR19, (E,E)-2-(3,4 Dihydroxybenzylamido)-3-styrylacrylonitrile]
[5]; 5 μM, FIG. 12
  stimulatory effect on CFU-C colony formation: disappeared
[3]
  efficacy against a variety of cell types (Acute Lymphoblastic Leukemia, Philadelphia positive Leukemia, Acute Myeloid Leukemia): highly effective
[3]; low nanomolar doses, long term exposure
  toxicity to cancer cells: highly toxic
